Results taken from patent US20220177508A1, “C10-Cyclic Substituted 13-Membered Macrolides and Uses Thereof” (Zikani Therapeutics, Inc., priority 2018, published 2022).
In brackets after ≈: the same amount, converted by molar mass.

Columns and labels:
Format in all cases: cell-based
[1] = test system: A. baumannii MP-15; assay: Broth dilution MIC determination (CLSI), A. baumannii MP-15; settings: Acinetobacter baumannii, MP15; strain MP-15, broth dilution; read-out: MIC A. baumanii MP-15
[2] = test system: K. pneumoniae MP-648; assay: Broth dilution MIC determination (CLSI), K. pneumoniae MP-648; settings: Klebsiella pneumoniae, MP648; strain MP-648, broth dilution
[3] = test system: S. aureus MP-12; assay: Broth dilution MIC determination (CLSI), S. aureus MP-12; settings: Staphylococcus aureus, MP12; strain MP-12, broth dilution
[4] = test system: P. aeruginosa MP-3; assay: Broth dilution MIC determination (CLSI), P. aeruginosa MP-3; settings: Pseudomonas aeruginosa, MP3; strain MP-3, broth dilution
[5] = test system: E. coli MP-4; assay: Broth dilution MIC determination (CLSI), E. coli MP-4; settings: Escherichia coli, MP4; strain MP-4, broth dilution; read-out: MIC E. coli MP-4
[6] = test system: K. pneumoniae MP-546; assay: Broth dilution MIC determination (CLSI), K. pneumoniae MP-546; settings: Klebsiella pneumoniae, MP546; strain MP-546, broth dilution

| Compound | MIC [1] [µg/mL] | MIC [2] [µg/mL] | MIC [3] [µg/mL] | MIC [4] [µg/mL] | MIC [5] [µg/mL] | MIC [6] [µg/mL] |
| --- | --- | --- | --- | --- | --- | --- |
| CCCN1CCC([C@]2(C)COC(=O)C(C)(C)C(=O)[C@H](C)[C@@H](O[C@@H]3O[C@H](C)C[C@H](N(C)C)[C@H]3O)[C@](C)(OC)C[C@@H](C)CN2C)CC1 [Compound 143, (3R,6R,8R,9R,10R)-9-(((2S,3R,4S,6R)-4-(dimethylamino)-3-hydroxy-6-methyltetrahydro-2H-pyran-2-yl)oxy)-8-methoxy-3,4,6,8,10,12,12-heptamethyl-3-(1-propylpiperidin-4-yl)-1-oxa-4-azacyclotridecane-11,13-dione] | > 32 | < 4 | > 32 | > 32 | < 4 | < 4 |
| CO[C@]1(C)C[C@@H](C)CN(C)[C@H](C2CN(C(=O)CCN(C)CC3CC3)C2)COC(=O)C(C)(C)C(=O)[C@H](C)[C@H]1O[C@@H]1O[C@H](C)C[C@H](N(C)C)[C@H]1O [Compound 144, (3R,6R,8R,9R,10R)-3-(1-(3-((cyclopropylmethyl)(methyl)amino)propanoyl)azetidin-3-yl)-9-(((2S,3R,4S,6R)-4-(dimethylamino)-3-hydroxy-6-methyltetrahydro-2H-pyran-2-yl)oxy)-8-methoxy-4,6,8,10,12,12-hexamethyl-1-oxa-4-azacyclotridecane-11,13-dione] | > 32 | > 32 | > 32 | > 32 | < 4 | 4 to 32 (≈ 5.76 to 46 µM) |
| CO[C@]1(C)C[C@@H](C)CN(C)[C@H](C2CN(C(=O)[C@@H]3CCN(CC4CC4)C3)C2)COC(=O)C(C)(C)C(=O)[C@H](C)[C@H]1O[C@@H]1O[C@H](C)C[C@H](N(C)C)[C@H]1O [Compound 145, (3R,6R,8R,9R,10R)-3-(1-((R)-1-(cyclopropylmethyl)pyrrolidine-3-carbonyl)azetidin-3-yl)-9-(((2S,3R,4S,6R)-4-(dimethylamino)-3-hydroxy-6-methyltetrahydro-2H-pyran-2-yl)oxy)-8-methoxy-4,6,8,10,12,12-hexamethyl-1-oxa-4-azacyclotridecane-11,13-dione] | > 32 | 4 to 32 (≈ 5.66 to 45.3 µM) | > 32 | > 32 | < 4 | 4 to 32 (≈ 5.66 to 45.3 µM) |
| CO[C@]1(C)C[C@@H](C)CN(C)[C@H](C2CN(CC3CC3)C2)[C@@H](C)OC(=O)C(C)(C)C(=O)[C@H](C)[C@H]1O[C@@H]1O[C@H](C)C[C@H](N(C)C)[C@H]1O [Compound 146, (2R,3R,6R,8R,9R,10R)-3-(1-(cyclopropylmethyl)azetidin-3-yl)-9-(((2S,3R,4S,6R)-4-(dimethylamino)-3-hydroxy-6-methyltetrahydro-2H-pyran-2-yl)oxy)-8-methoxy-2,4,6,8,10,12,12-heptamethyl-1-oxa-4-azacyclotridecane-11,13-dione] | > 32 | > 32 | > 32 | > 32 | 4 to 32 (≈ 6.41 to 51.3 µM) | > 32 |
| CO[C@]1(C)C[C@@H](C)CN(C)[C@H](C2CCN(C(C)C)CC2)COC(=O)C(C)(C)C(=O)[C@H](C)[C@H]1O[C@@H]1O[C@H](C)C[C@H](N(C)C)[C@H]1O [Compound 151] | > 32 | < 4 | > 32 | > 32 | < 4 | < 4 |
| CO[C@]1(C)C[C@@H](C)CN(C)[C@H](C2CN(C(=O)CCCN(C)CC3CCC3)C2)COC(=O)C(C)(C)C(=O)[C@H](C)[C@H]1O[C@@H]1O[C@H](C)C[C@H](N(C)C)[C@H]1O [Compound 156, (3R,6R,8R,9R,10R)-3-(1-(4-((cyclobutylmethyl)(methyl)amino)butanoyl)azetidin-3-yl)-9-(((2S,3R,4S,6R)-4-(dimethylamino)-3-hydroxy-6-methyltetrahydro-2H-pyran-2-yl)oxy)-8-methoxy-4,6,8,10,12,12-hexamethyl-1-oxa-4-azacyclotridecane-11,13-dione] | > 32 | 4 to 32 (≈ 5.53 to 44.3 µM) | > 32 | > 32 | < 4 | 4 to 32 (≈ 5.53 to 44.3 µM) |
| CO[C@]1(C)C[C@@H](C)CN(C)[C@](C)(C2CCN(C(C)C)CC2)COC(=O)C(C)(C)C(=O)[C@H](C)[C@H]1O[C@@H]1O[C@H](C)C[C@H](N(C)C)[C@H]1O [Compound 158, (3R,6R,8R,9R,10R)-9-(((2S,3R,4S,6R)-4-(dimethylamino)-3-hydroxy-6-methyltetrahydro-2H-pyran-2-yl)oxy)-3-(1-isopropylpiperidin-4-yl)-8-methoxy-3,4,6,8,10,12,12-heptamethyl-1-oxa-4-azacyclotridecane-11,13-dione] | > 32 | < 4 | 4 to 32 (≈ 6.25 to 50 µM) | > 32 | < 4 | < 4 |
| CO[C@]1(C)C[C@@H](C)CN(C)[C@H](C2CN(CC3CCCO3)C2)COC(=O)C(C)(C)C(=O)[C@H](C)[C@H]1O[C@@H]1O[C@H](C)C[C@H](N(C)C)[C@H]1O (stereo partly drawn) [Compound 164, (3R,6R,8R,9R,10R)-9-(((2S,3R,4S,6R)-4-(dimethylamino)-3-hydroxy-6-methyltetrahydro-2H-pyran-2-yl)oxy)-8-methoxy-4,6,8,10,12,12-hexamethyl-3-(1-((tetrahydrofuran-2-yl)methyl)azetidin-3-yl)-1-oxa-4-azacyclotridecane-11,13-dione] | > 32 | 4 to 32 (≈ 6.25 to 50 µM) | 4 to 32 (≈ 6.25 to 50 µM) | > 32 | < 4 | < 4 |
| CCN(C)[C@H]1C[C@@H]([C@@H]2COC(=O)C(C)(C)C(=O)[C@H](C)[C@@H](O[C@@H]3O[C@H](C)C[C@H](N(C)C)[C@H]3O)[C@](C)(OC)C[C@@H](C)CN2C)C1 [Compound 165, (3R,6R,8R,9R,10R)-9-(((2S,3R,4S,6R)-4-(dimethylamino)-3-hydroxy-6-methyltetrahydro-2H-pyran-2-yl)oxy)-3-((1s,3S)-3-(ethyl(methyl)amino)cyclobutyl)-8-methoxy-4,6,8,10,12,12-hexamethyl-1-oxa-4-azacyclotridecane-11,13-dione] | > 32 | 4 to 32 (≈ 6.54 to 52.3 µM) | > 32 | > 32 | < 4 | 4 to 32 (≈ 6.54 to 52.3 µM) |
| CO[C@]1(C)C[C@@H](C)CN(C)[C@H](C2CN(C(=O)[C@H]3CCN(C)C3)C2)COC(=O)C(C)(C)C(=O)[C@H](C)[C@H]1O[C@@H]1O[C@H](C)C[C@H](N(C)C)[C@H]1O [Compound 168, (3R,6R,8R,9R,10R)-9-(((2S,3R,4S,6R)-4-(dimethylamino)-3-hydroxy-6-methyltetrahydro-2H-pyran-2-yl)oxy)-8-methoxy-4,6,8,10,12,12-hexamethyl-3-(1-((S)-1-methylpyrrolidine-3-carbonyl)azetidin-3-yl)-1-oxa-4-azacyclotridecane-11,13-dione] | > 32 | > 32 | 4 to 32 (≈ 6 to 48 µM) | > 32 | < 4 | 4 to 32 (≈ 6 to 48 µM) |
| CO[C@]1(C)C[C@@H](C)CN(C)[C@H](C2CN(Cc3ccncc3)C2)COC(=O)C(C)(C)C(=O)[C@H](C)[C@H]1O[C@@H]1O[C@H](C)C[C@H](N(C)C)[C@H]1O [Compound 176, (3R,6R,8R,9R,10R)-9-(((2S,3R,4S,6R)-4-(dimethylamino)-3-hydroxy-6-methyltetrahydro-2H-pyran-2-yl)oxy)-8-methoxy-4,6,8,10,12,12-hexamethyl-3-(1-(pyridin-4-ylmethyl)azetidin-3-yl)-1-oxa-4-azacyclotridecane-11,13-dione] | > 32 | > 32 | 4 to 32 (≈ 6.18 to 49.5 µM) | > 32 | 4 to 32 (≈ 6.18 to 49.5 µM) | 4 to 32 (≈ 6.18 to 49.5 µM) |
| CO[C@]1(C)C[C@@H](C)CN(C)[C@H](C2CN(Cc3cncnc3)C2)COC(=O)C(C)(C)C(=O)[C@H](C)[C@H]1O[C@@H]1O[C@H](C)C[C@H](N(C)C)[C@H]1O [Compound 177, (3R,6R,8R,9R,10R)-9-(((2S,3R,4S,6R)-4-(dimethylamino)-3-hydroxy-6-methyltetrahydro-2H-pyran-2-yl)oxy)-8-methoxy-4,6,8,10,12,12-hexamethyl-3-(1-(pyrimidin-5-ylmethyl)azetidin-3-yl)-1-oxa-4-azacyclotridecane-11,13-dione] | > 32 | > 32 | 4 to 32 (≈ 6.17 to 49.4 µM) | > 32 | 4 to 32 (≈ 6.17 to 49.4 µM) | 4 to 32 (≈ 6.17 to 49.4 µM) |
| CO[C@]1(C)C[C@@H](C)CN(C)[C@H](C2CN(C(=O)CCCN(C)CC(C)C)C2)COC(=O)C(C)(C)C(=O)[C@H](C)[C@H]1O[C@@H]1O[C@H](C)C[C@H](N(C)C)[C@H]1O [Compound 178, (3R,6R,8R,9R,10R)-9-(((2S,3R,4S,6R)-4-(dimethylamino)-3-hydroxy-6-methyltetrahydro-2H-pyran-2-yl)oxy)-3-(1-(4-(isobutyl(methyl)amino)butanoyl)azetidin-3-yl)-8-methoxy-4,6,8,10,12,12-hexamethyl-1-oxa-4-azacyclotridecane-11,13-dione] | > 32 | 4 to 32 (≈ 5.63 to 45 µM) | > 32 | > 32 | < 4 | 4 to 32 (≈ 5.63 to 45 µM) |
| CO[C@]1(C)C[C@@H](C)CN(C)[C@H](C2CN(C(=O)[C@H]3CCNC3)C2)COC(=O)C(C)(C)C(=O)[C@H](C)[C@H]1O[C@@H]1O[C@H](C)C[C@H](N(C)C)[C@H]1O [Compound 181, (3R,6R,8R,9R,10R)-9-(((2S,3R,4S,6R)-4-(dimethylamino)-3-hydroxy-6-methyltetrahydro-2H-pyran-2-yl)oxy)-8-methoxy-4,6,8,10,12,12-hexamethyl-3-(1-((S)-pyrrolidine-3-carbonyl)azetidin-3-yl)-1-oxa-4-azacyclotridecane-11,13-dione] | > 32 | > 32 | 4 to 32 (≈ 6.13 to 49 µM) | > 32 | 4 to 32 (≈ 6.13 to 49 µM) | > 32 |
